Patent publication US9089499B2, “Para-coumaric acid or para-hydroxycinnamic acid derivatives and their use in cosmetic or dermatological compositions” (BASF Beauty Care Solutions France S.A.S., priority 2005, dated 2015)
Where two headings read alike, the source gives them in different places.

Legend:
Human tyrosinase [1] = molecular target: T1, Human tyrosinase (Homo sapiens, UniProt P14679); experiment: Inhibition of human tyrosinase after 24 h application to normal human melanocytes in monolayer; type: cell-based; settings: for inhibition at 1000 µM: 10^−3 M
T1 construct: endogenous in cells; host or cells: normal human melanocytes (abdominal surgery; several donors of fair, brown and black phototypes)
T1 sequence (P14679 19-529): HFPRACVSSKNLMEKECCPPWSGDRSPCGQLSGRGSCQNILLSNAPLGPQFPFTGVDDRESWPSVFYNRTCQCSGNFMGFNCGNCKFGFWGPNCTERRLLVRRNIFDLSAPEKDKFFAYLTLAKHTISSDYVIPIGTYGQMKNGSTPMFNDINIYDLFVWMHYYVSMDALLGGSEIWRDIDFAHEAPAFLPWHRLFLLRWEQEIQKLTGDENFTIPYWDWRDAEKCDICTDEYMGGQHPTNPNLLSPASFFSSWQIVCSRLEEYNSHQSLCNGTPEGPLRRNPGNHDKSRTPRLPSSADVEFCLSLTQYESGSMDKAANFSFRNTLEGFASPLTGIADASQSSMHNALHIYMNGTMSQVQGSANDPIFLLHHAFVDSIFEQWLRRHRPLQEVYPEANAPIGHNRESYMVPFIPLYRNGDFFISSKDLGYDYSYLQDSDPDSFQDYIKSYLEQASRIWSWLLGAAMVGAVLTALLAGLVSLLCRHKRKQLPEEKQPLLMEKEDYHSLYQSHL
Description: Normal human melanocytes (obtained from abdominal surgery) are seeded in 24-well plates at a rate of 80 000 cells per well. They are cultured to confluence and the active agents are applied for 24 hours to the culture media. After 24 hours, the media are removed and the melanocytes are detached via mechanical action. An extraction is performed via a thermal shock and the supernatants are then recovered and incubated with MBTH (Sigma) and L-dopa (Sigma). The OD at 490 nm is measured after 30 minutes, and the tyrosinase inhibition is calculated by relating the OD at 490 nm to the protein content (measured in each culture well) of the test relative to the ratio: OD 490 nm/protein concentration of the negative control (untreated control).
The compounds derived from the examples mentioned above were tested on melanocytes derived from various donors but of fair phototype, according to the protocol described in Example 29. The donors tested are as follows: • donor S (donor tested in Example 12): • donor 1: • donor 2: • donor 3
The compound derived from Example 1 is tested on cultures of melanocytes obtained from 2 donors of brown phototype and from one donor of black phototype. The protocol applied is that described in Example 29. […]

normal human melanocytes = experiment: Cytotoxicity on normal human melanocytes, PNPP assay; type: cell-based; settings: 24 hours, relative to untreated wells
Description: The cytotoxicity of the active agents is studied on normal human melanocytes in 24-well plates, via assay with PNPP (P-nitrophenyl phosphate), this substance being converted into p-nitrophenol via the intracellular acid phosphatases of viable cells. The absorbance of p-nitrophenol at 405 nm is directly proportional to the number of viable cells.
The active agents are tested at 2 different concentrations (10^−4 M and 10^−5 M) and added to the culture medium and incubated at 37° C. for 24 hours. The assay with PNPP is performed on the cell lawn and the results are expressed as a percentage of viability relative to the negative control (untreated wells).

[2] = Antiradical activity, acellular DPPH model; settings: DPPH 30 minutes, absorbance 520 nm
Description: The antiradical activity of the derivatives derived from the syntheses described above was evaluated in an in vitro acellular model using DPPH.
1,1-Diphenyl 2-picryihydrazyl, on account of its paramagnetic structure, can accept an electron or a hydrogen radical to become a stable diamagnetic molecule. This free radical, which is purple coloured in ethanol, has a strong absorption band at 520 nm.
The addition of a compound that provides electrons results in a decolorization of the 1,1-diphenyl 2-picrylhydrazyl that is proportional to the number of electrons taken up by the radical, which may be monitored by measuring the absorbance at 520 nm.
DPPH is incubated for 30 minutes in the presence of the derivatives described above, tested at a concentration of 10^−5M, or alone for the control. At the end of the incubation, the antiradical activity of the above derivatives is evaluated by measuring the absorbance of the solution at 520 nm.
The antiradical activity of each test product is calculated according to the formula, as a percentage: 100−((OD520 in the presence of the test compound/OD520 in the absence of compound)×100)

Human tyrosinase [3] = molecular target: T1, Human tyrosinase; experiment: In vitro test of inhibition of human tyrosinase from melanocyte extracts (L-dopa/MBTH, OD 490 nm); type: biochemical; settings: melanocyte extract; for inhibition at 100 µM: 10^−4M, read-out: Inhibition of human tyrosinase, percentage of inhibition, Mean 10^−4M; for inhibition at 10 µM: 10^−5M, read-out: Inhibition of human tyrosinase, percentage of inhibition, Mean 10^−5M
Description: Human tyrosinase, obtained from melanocyte extracts obtained from healthy donors, catalyses the formation of L-dopaquinone from L-dopa. Now, the L-dopaquinone may be quantified by visible spectrophotometry at 490 nm by means of a chromogen: 3-methyl-2-benzothiazolinone hydrazone (MBTH).
The melanocyte extract is obtained after lysis of cell membranes of the normal human melanocytes, performed via a thermal shock. The supernatant is recovered and then incubated with MBTH (Sigma) and L-dopa (Sigma). […]

fungal tyrosinase = experiment: In vitro test of inhibition of isolated fungal tyrosinase (L-dopa, dopachrome OD 490 nm); type: biochemical; settings: 490 nm
From the text: Tyrosinase catalyses the formation of L-dopaquinone and then of dopachrome from L-dopa. Now, dopachrome is a coloured compound that may be quantified by visible spectrophotometry at 490 nm. The use of an active agent capable of modifying the enzymatic activity will be reflected by a variation in the optical density at 490 nm. The to ratio of the rates of formation of dopachrome makes it possible to determine precisely the activations or inhibitions obtained with the various test molecules.
The sample to be tested is incubated in the presence of fungal tyrosinase (Sigma), for 5 minutes with stirring. L-Dopa (Sigma), a tyrosinase substrate, is incubated for 10 minutes in the absence of light, in the presence or absence of the test molecules. The calculation of the percentage of inhibition is performed by relating the test OD to the OD of the negative control without molecule.
In the context of this in vitro test, the p-coumaric acid derivatives were tested at final concentrations of 10^−4M and 10^−5M.

[4] = 10^−4M, 24 hours, read-out: Inhibition of human tyrosinase after application to normal human melanocytes, percentage of inhibition, Mean 10^−4M
[5] = 10^−5M, 24 hours, read-out: Inhibition of human tyrosinase after application to normal human melanocytes, percentage of inhibition, Mean 10^−5M
[6] = Donor 1, fair phototype, 10^−4 M, read-out: Inhibition of tyrosinase, Mean 10^−4 M, Donor 1
[7] = Donor 1, fair phototype, 10^−5 M, read-out: Inhibition of tyrosinase, Mean 10^−5 M, Donor 1
[8] = Donor 2, fair phototype, 10^−4 M, read-out: Inhibition of tyrosinase, Mean 10^−4 M, Donor 2
[9] = Donor 2, fair phototype, 10^−5 M, read-out: Inhibition of tyrosinase, Mean 10^−5 M, Donor 2
[10] = Donor 3, fair phototype, 10^−4 M, read-out: Inhibition of tyrosinase, Mean 10^−4 M, Donor 3
[11] = Donor 3, fair phototype, 10^−5 M, read-out: Inhibition of tyrosinase, Mean 10^−5 M, Donor 3
[12] = Donor S, fair phototype, 10^−4 M, read-out: Inhibition of tyrosinase, Mean 10^−4 M, Donor S
[13] = Donor S, fair phototype, 10^−5 M, read-out: Inhibition of tyrosinase, Mean 10^−5 M, Donor S

SMILES: COc1cc(/C=C/C(=O)NCc2ccc(O)c(OC)c2)ccc1O [Example 4, N-trans-feruloyl-4-hydroxy-3-methoxyphenylmethylamine]
- inhibition at 100 µM (Human tyrosinase [1]; [4]): 39.8%
- inhibition at 10 µM (Human tyrosinase [1]; [5]): 15.8%
- Percentages of viability, Mean 10^−4 M (normal human melanocytes): 101.94%
- Percentages of viability, Mean 10^−5 M (normal human melanocytes): 99.55%
- Antiradical activity, Mean 10^−5 M [2]: 15.72%
- inhibition at 100 µM (Human tyrosinase [3]): 6.42%
- inhibition at 10 µM (Human tyrosinase [3]): 4.92%
- Inhibition of fungal tyrosinase, percentage of inhibition, Mean 10^−4M (fungal tyrosinase): 1.35%
- Inhibition of fungal tyrosinase, percentage of inhibition, Mean 10^−5M (fungal tyrosinase): 0%

SMILES: O=C(/C=C/c1ccc(O)c(O)c1)NCCc1ccc(O)cc1 [Example 9, N-trans-caffeoyltyramine]
- inhibition at 100 µM (Human tyrosinase [1]; [4]): 100%
- inhibition at 10 µM (Human tyrosinase [1]; [5]): 24.6%
- inhibition at 1000 µM (Human tyrosinase [1]; B103, Donor B, brown phototype, read-out: Inhibition of tyrosinase, Mean Donor B, 10^−3 M): 94.5%
- inhibition at 100 µM (Human tyrosinase [1]; B104, Donor B, brown phototype, 10^−4 M, read-out: Inhibition of tyrosinase, Mean Donor B, 10^−4 M): 44.4%
- inhibition at 100 µM (Human tyrosinase [1]; [6]): 65.3%
- inhibition at 10 µM (Human tyrosinase [1]; [7]): 0%
- inhibition at 100 µM (Human tyrosinase [1]; [8]): 61.5%
- inhibition at 10 µM (Human tyrosinase [1]; [9]): 0%
- inhibition at 100 µM (Human tyrosinase [1]; [10]): 70.7%
- inhibition at 10 µM (Human tyrosinase [1]; [11]): 22.2%
- inhibition at 1000 µM (Human tyrosinase [1]; Donor A, brown phototype, read-out: Inhibition of tyrosinase, Mean Donor A, 10^−3 M): 98.9%
- inhibition at 100 µM (Human tyrosinase [1]; Donor A, brown phototype, 10^−4 M, read-out: Inhibition of tyrosinase, Mean Donor A, 10^−4 M): 44.6%
- inhibition at 10 µM (Human tyrosinase [1]; Donor A, brown phototype, 10^−5 M, read-out: Inhibition of tyrosinase, Mean Donor A, 10^−5 M): 21.3%
- inhibition at 10 µM (Human tyrosinase [1]; Donor B, brown phototype, 10^−5 M, read-out: Inhibition of tyrosinase, Mean Donor B, 10^−5 M): 18.9%
- inhibition at 100 µM (Human tyrosinase [1]; [12]): 100%
- inhibition at 10 µM (Human tyrosinase [1]; [13]): 24.6%
- inhibition at 100 µM (Human tyrosinase [1]; donor of black phototype, 10^−4 M, read-out: Inhibition, Mean Negroid skin, 10^−4 M): 49.3%
- inhibition at 10 µM (Human tyrosinase [1]; donor of black phototype, 10^−5 M, read-out: Inhibition, Mean Negroid skin, 10^−5 M): 16%
- Percentages of viability, Mean 10^−4 M (normal human melanocytes): 77.9%
- Percentages of viability, Mean 10^−5 M (normal human melanocytes): 94.96%
- Antiradical activity, Mean 10^−5 M [2]: 41.17%
- inhibition at 100 µM (Human tyrosinase [3]): 22.1%
- inhibition at 10 µM (Human tyrosinase [3]): 11.9%
- Inhibition of fungal tyrosinase, percentage of inhibition, Mean 10^−4M (fungal tyrosinase): 27.42%
- Inhibition of fungal tyrosinase, percentage of inhibition, Mean 10^−5M (fungal tyrosinase): 13.06%

SMILES: O=C(/C=C/c1ccc(O)c(O)c1)NCCc1ccc(O)c(O)c1 [Example 10, N-trans-caffeoyldopamine]
- inhibition at 100 µM (Human tyrosinase [1]; [4]): 66.8%
- inhibition at 10 µM (Human tyrosinase [1]; [5]): 0%
- inhibition at 100 µM (Human tyrosinase [1]; [6]): 44.6%
- inhibition at 10 µM (Human tyrosinase [1]; [7]): 0%
- inhibition at 100 µM (Human tyrosinase [1]; [8]): 0%
- inhibition at 10 µM (Human tyrosinase [1]; [9]): 0.15%
- inhibition at 100 µM (Human tyrosinase [1]; [10]): 14.4%
- inhibition at 10 µM (Human tyrosinase [1]; [11]): 3.32%
- inhibition at 100 µM (Human tyrosinase [1]; [12]): 66.8%
- inhibition at 10 µM (Human tyrosinase [1]; [13]): 0%
- Percentages of viability, Mean 10^−4 M (normal human melanocytes): 84.62%
- Percentages of viability, Mean 10^−5 M (normal human melanocytes): 102.1%
- Antiradical activity, Mean 10^−5 M [2]: 57.45%
- inhibition at 100 µM (Human tyrosinase [3]): 9.91%
- inhibition at 10 µM (Human tyrosinase [3]): 11.4%
- Inhibition of fungal tyrosinase, percentage of inhibition, Mean 10^−4M (fungal tyrosinase): 16.23%
- Inhibition of fungal tyrosinase, percentage of inhibition, Mean 10^−5M (fungal tyrosinase): 14.72%

SMILES: COc1cc(CNC(=O)/C=C/c2ccc(O)c(O)c2)ccc1O [Example 11, N-trans-caffeoyl-4-hydroxy-3-methoxyphenylmethylamine]
- inhibition at 10 µM (Human tyrosinase [1]; [5]): 28%
- Percentages of viability, Mean 10^−5 M (normal human melanocytes): 116.99%
- Antiradical activity, Mean 10^−5 M [2]: 59.2%
- inhibition at 100 µM (Human tyrosinase [3]): 0%
- inhibition at 10 µM (Human tyrosinase [3]): 8.68%
- Inhibition of fungal tyrosinase, percentage of inhibition, Mean 10^−4M (fungal tyrosinase): 12.03%
- Inhibition of fungal tyrosinase, percentage of inhibition, Mean 10^−5M (fungal tyrosinase): 3.7%

SMILES: COc1ccc(CCNC(=O)/C=C/c2ccc(O)c(O)c2)cc1OC [Example 12, N-trans-caffeoyl-3,4-dimethoxydopamine]
- inhibition at 10 µM (Human tyrosinase [1]; [5]): 5.63%
- Percentages of viability, Mean 10^−5 M (normal human melanocytes): 109.84%
- Antiradical activity, Mean 10^−5 M [2]: 44.51%
- inhibition at 100 µM (Human tyrosinase [3]): 6.53%
- inhibition at 10 µM (Human tyrosinase [3]): 0%
- Inhibition of fungal tyrosinase, percentage of inhibition, Mean 10^−4M (fungal tyrosinase): 17.32%
- Inhibition of fungal tyrosinase, percentage of inhibition, Mean 10^−5M (fungal tyrosinase): 20.26%
